Assay results as given in PMC5017989, “Anti-inflammatory and acetylcholinesterase activity of extract, fractions and five compounds isolated from the leaves and twigs of Artemisia annua growing in Cameroon” (SpringerPlus, 2016).
Like-named read-outs stand apart in the source and are kept apart here. Marks after values point to notes of the source that are not given here.

Tests used:
RAW 264.7 macrophages = experiment: in vitro; format: cell-based, murine; conditions: sample at 20 µg/mL; MTT; cells with LPS only = 100 %
Procedure: (§1) The RAW 264.7 macrophages cell line was purchased from the American Type Culture Collection (ATCC TIB-71, Rockville, MD, USA) and cultured in a plastic culture flask in DMEM containing L-glutamine supplemented with 10 % FCS and 1 % PSF solution at 37 °C with 5 % CO2. Cells were seeded (10^4 per well) in 96 well-microtitre plate and activated LPS alone (control) or with samples at different concentrations. Quercetin was used as a positive control (Mu et al. [2001]).
(§2) The number of viable cells was determined as previously described by Mosmann ([1983]) on the macrophage cells with few modifications. Briefly, the cells were topped up with 200 µL DMEM after removal of media. 30 µL of 15 mg/mL MTT were added to each well and cells were incubated at 37 °C with 5 % CO2. The medium was aspirated after 2 h, and the formazan salt formed was dissolved using DMSO. The absorbance was read at 570 nm on a BioTek Synergy microplate reader. Cell viability percentage was then calculated with reference to the control (cells with LPS only considered as 100 % viable).

in vitro = format: cell-based, murine; conditions: mouse, MTT, cells with LPS only = 100 %, read-out: % Cell viability
Procedure: as §1, §2

acetylcholinesterase = acetylcholinesterase (Electrophorus electricus, UniProt O42275); experiment: biochemical
[1] = test system: NO production in LPS-activated RAW 264.7 macrophages; experiment: Nitric oxide inhibitory activity in LPS-activated RAW 264.7 macrophages (Griess reagent); format: cell-based, murine; conditions: for inhibition at 0.5 µg/mL / inhibition at 2 µg/mL / inhibition at 5 µg/mL / inhibition at 20 µg/mL: Mus musculus, relative to LPS control; for inhibition at 0.5 µg/mL: RAW264.7, sample at 0.5 µg/mL; for inhibition at 2 µg/mL: RAW264.7, sample at 2 µg/mL; for inhibition at 5 µg/mL: RAW264.7, sample at 5 µg/mL; for inhibition at 20 µg/mL: RAW264.7, sample at 20 µg/mL; for NO: LPS-activated RAW 264.7
Procedure: Compounds were assayed for their potential to inhibit the NO production in macrophage cells.
as §1
The amount of nitric oxide released was determined by the Griess reagent as reported previously (Dzoyem et al. [2015]).

acetylcholinesterase, sequence (O42275 24-633): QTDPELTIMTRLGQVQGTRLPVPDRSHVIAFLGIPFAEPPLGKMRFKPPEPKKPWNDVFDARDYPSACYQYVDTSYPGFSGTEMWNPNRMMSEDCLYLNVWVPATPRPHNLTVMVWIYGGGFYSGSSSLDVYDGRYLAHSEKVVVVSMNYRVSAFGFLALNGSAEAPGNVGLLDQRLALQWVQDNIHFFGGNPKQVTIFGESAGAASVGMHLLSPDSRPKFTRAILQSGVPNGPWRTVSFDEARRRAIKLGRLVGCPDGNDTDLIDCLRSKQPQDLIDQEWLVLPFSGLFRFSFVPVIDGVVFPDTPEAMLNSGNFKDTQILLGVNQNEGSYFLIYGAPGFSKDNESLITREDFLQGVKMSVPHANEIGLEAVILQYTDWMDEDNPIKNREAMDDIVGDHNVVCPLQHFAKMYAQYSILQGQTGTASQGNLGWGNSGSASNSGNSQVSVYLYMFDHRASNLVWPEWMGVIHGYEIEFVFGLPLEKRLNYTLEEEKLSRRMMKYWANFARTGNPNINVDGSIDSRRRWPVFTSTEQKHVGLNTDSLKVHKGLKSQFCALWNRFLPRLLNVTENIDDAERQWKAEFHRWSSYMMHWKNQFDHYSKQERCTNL

Row | Compound | % Cell viability (RAW 264.7 macrophages) | viability (in vitro; sample at 0.5 µg/mL) [%] | viability (in vitro; sample at 2 µg/mL) [%] | viability (in vitro; sample at 5 µg/mL) [%] | viability (in vitro; sample at 20 µg/mL) [%] | inhibition at 100 µg/mL (acetylcholinesterase) [%] | inhibition at 0.5 µg/mL [1] [%] | inhibition at 2 µg/mL [1] [%] | inhibition at 5 µg/mL [1] [%] | inhibition at 20 µg/mL [1] [%] | NO ([1]; sample at 0.5 µg/mL) [µM] | NO ([1]; sample at 2 µg/mL) [µM] | NO ([1]; sample at 5 µg/mL) [µM] | NO ([1]; sample at 20 µg/mL) [µM] | % Inhibition (acetylcholinesterase) (acetylcholinesterase; single concentration of 100 µg/mL (compounds and galantamine))
1 | C[C@@H]1CC[C@H]2[C@@H](C)C(=O)O[C@@H]3O[C@@]4(C)CC[C@@H]1[C@]32OO4 [Compound 1, artemisinin] | without obvious cytotoxic effect | 110 ± 6.22 | 104 ± 9.66 | 91.3 ± 2.2 | 80.9 ± 1.71 | 71.7 ± 7.9 | 56.3 ± 14.4 | 83.1 ± 9.72 | 89.1 ± 7.05 | 99.2 ± 2.16 | 3.36 ± 1.10 | 1.30 ± 0.75 | 0.84 ± 0.54 | 0.07 ± 0.17 | –
2 | COc1ccc(-c2oc3cc(OC)c(OC)c(O)c3c(=O)c2O)cc1O [Compound 4, eupatin] | – | 79.3 ± 5.34 | 48.5 ± 3.88 | 17.6 ± 1.66 | 7.49 ± 0.62 | – | 83.4 ± 1.96 | 97.9 ± 1.08 | 97.8 ± 6.28 | > 100 | 1.27 ± 0.15 | 0.16 ± 0.08 | 0.17 ± 0.48 | -0.20 ± 0.02 | 58.22 ± 2.73^b %
3 | COc1cc(-c2oc3cc(OC)c(OC)c(O)c3c(=O)c2OC)ccc1O [Compound 3, chrysosplenetin] | – | 95.6 ± 4.88 | 67.4 ± 3.74 | 28.5 ± 2.18 | 15.9 ± 2.37 | 80 ± 9.67 | 37.7 ± 2.88 | 81.7 ± 1.04 | 98.6 ± 1.67 | > 100 | 4.79 ± 0.22 | 1.41 ± 0.08 | 0.10 ± 0.13 | -0.32 ± 0.02 | –
4 | COc1cc2ccc(=O)oc2cc1O [Compound 2, scopoletin] | without obvious cytotoxic effect | 80.3 ± 8.56 | 69.9 ± 9.23 | 88.5 ± 1.19 | 81.6 ± 4.35 | 56.3 ± 4.92 | 65.5 ± 4.41 | 72 ± 4.22 | 77.7 ± 2.09 | 98.46 ± 0.79 | 2.65 ± 0.34 | 2.15 ± 0.32 | 1.71 ± 0.16 | 0.12 ± 0.06 | –
5 | O=c1c(O)c(-c2ccc(O)c(O)c2)oc2cc(O)cc(O)c12 [Quercetin, reference compound] | – | 105 ± 6.13 | 98.3 ± 5.17 | 76.2 ± 2.06 | 23.1 ± 5.37 | – | 34.9 ± 2.76 | 43 ± 3.89 | 85.7 ± 2.34 | 103 ± 1.08 | 5.01 ± 1.67 | 4.38 ± 0.30 | 1.10 ± 0.18 | – | –
